{"source": "patent US8673980B2", "about": "“Closthioamides, compositions, and methods for treating bacterial or fungal infections or cancer” (Leibniz-Institut fuer Naturstoff-Forschung und …, priority 2009, dated 2014)", "type_in_all_cases": "cell-based", "key": {"K-562": {"tested_on": "K-562", "assay": "Antiproliferative activity on K-562 cells", "details": "K562; K-562 human erythromyeloblastoid leukemia cells", "description": "(§1) For the detailed evaluation of its biological profile as anti-cancer agent, cultured human tumor cell lines were treated with the closthioamide 1. In particular, closthioamide 1 was tested for its inhibitory effect on cell growth of different human cell lines."}, "HUVEC": {"tested_on": "HUVEC", "assay": "Antiproliferative activity on HUVEC cells", "details": "HUVEC human umbilical vein endothelial cells", "description": "as §1"}, "HeLa": {"tested_on": "HeLa", "assay": "Cytotoxicity on HeLa cells", "details": "HeLa human epithelial cervical cancer", "description": "The major metabolite (1) was isolated from a 5 L culture and purified by sequential open column chromatography and RP-HPLC (FIG. 1), yielding 1.04 mg of a pale yellow compound. […] According to HR-MS measurements, 1 has a molecular formula of C29H38N6O2S6 and appeared to be amazingly rich in sulfur atoms. Furthermore, NMR data disclosed that the molecule is symmetrical: The ^13C NMR and DEPT spectra indicated the presence of six methylene, two methine, and five quaternary carbons. In the ^1H NMR spectrum signals corresponding to two olefinic and six methylene protons were observed (see Table 1).\nas §1"}, "Bacillus subtilis": {"tested_on": "Bacillus subtilis", "assay": "Standardized antimicrobial assay (agar diffusion test)", "description": "(§2) For the detailed evaluation of their antimicrobial (antibacterial, antifungal) activity, dosthioamides according to the invention were subjected to standardized antimicrobial assays (Herold et al., Chem. Eur. J., 2005), e.g. agar diffusion test. In particular, closthioamide 1 was tested for its inhibitory effect on cell growth of different bacterial strains and/or fungi. The tested microbes included Bacillus subtilis, Staphylococcus aureus, E. coli, Pseudomonas aeruginosa, Staphylococcus aureus MRSA, Enterococcus faecalis VRE, Mycobacterium vaccae, Sporobolomyces salmonicolor, Candida albicans, and Penicillium notatum."}, "Candida albicans": {"tested_on": "Candida albicans", "assay": "Standardized antimicrobial assay (agar diffusion test)", "description": "as §2"}, "E. coli": {"tested_on": "E. coli", "assay": "Standardized antimicrobial assay (agar diffusion test)", "description": "as §2"}, "Mycobacterium vaccae": {"tested_on": "Mycobacterium vaccae", "assay": "Standardized antimicrobial assay (agar diffusion test)", "description": "as §2"}, "Penicillium notatum": {"tested_on": "Penicillium notatum", "assay": "Standardized antimicrobial assay (agar diffusion test)", "description": "as §2"}, "Pseudomonas aeruginosa": {"tested_on": "Pseudomonas aeruginosa", "assay": "Standardized antimicrobial assay (agar diffusion test)", "description": "as §2"}, "[1]": {"tested_on": "Sporobolomyces salmonicolor", "assay": "Standardized antimicrobial assay (agar diffusion test)", "description": "as §2"}, "Staphylococcus aureus": {"tested_on": "Staphylococcus aureus", "assay": "Standardized antimicrobial assay (agar diffusion test)", "description": "as §2"}, "[2]": {"tested_on": "Enterococcus faecalis VRE", "assay": "Standardized antimicrobial assay (agar diffusion test)", "details": "for antibacterial activity: vancomycin-resistant Enterococcus faecalis", "text": "(§3) FIG. 4. A Activity of synthetic closthioamide (1) using 4 bacterial test strains; from left to right: (1) E. coli, (2) Mycobacterium vaccae, (3) methicillin-resistant Staphylococcus aureus (MRSA), (4) vancomycin-resistant Enterococcus faecalis (VRE). B Ciprofloxacin control.\nas §2"}, "[3]": {"tested_on": "Staphylococcus aureus MRSA", "assay": "Standardized antimicrobial assay (agar diffusion test)", "text": "as §3, §2"}, "[4]": {"assay": "Cytotoxicity (data not shown)"}, "[5]": {"tested_on": "E. coli, Mycobacterium vaccae, MRSA, VRE", "assay": "Activity of synthetic closthioamide using 4 bacterial test strains (FIG. 4A)", "text": "as §3"}}}
{"smiles": "Oc1ccc(C(=S)NCCC(=S)NCCC(=S)NCCCNC(=S)CCNC(=S)CCNC(=S)c2ccc(O)cc2)cc1", "note": "[closthioamide 1, closthioamide]", "values": [{"measurement": "GI50", "setting": "K-562", "result": 1.5, "unit": "µg/mL"}, {"measurement": "GI50", "setting": "HUVEC", "result": 6.4, "unit": "µg/mL"}, {"measurement": "CC50", "setting": "HeLa", "result": 5.1, "unit": "µg/mL"}, {"measurement": "antimicrobial activity", "setting": "Bacillus subtilis", "result": "showed activity"}, {"measurement": "antimicrobial activity", "setting": "Candida albicans", "result": "showed activity"}, {"measurement": "antimicrobial activity", "setting": "E. coli", "result": "showed activity"}, {"measurement": "antimicrobial activity", "setting": "Mycobacterium vaccae", "result": "showed activity"}, {"measurement": "antimicrobial activity", "setting": "Penicillium notatum", "result": "showed activity"}, {"measurement": "antimicrobial activity", "setting": "Pseudomonas aeruginosa", "result": "showed activity"}, {"measurement": "antimicrobial activity", "setting": "[1]", "result": "showed activity"}, {"measurement": "antimicrobial activity", "setting": "Staphylococcus aureus", "result": "showed activity"}, {"measurement": "antimicrobial activity", "setting": "[2]; Enterococcus faecalis VRE", "result": "showed activity"}, {"measurement": "antibacterial activity", "setting": "[2]; FIG. 4, synthetic closthioamide", "result": "highly active"}, {"measurement": "antibacterial activity", "setting": "[2]; preliminary bioactivity profiling, isolated metabolite", "result": "antibacterial activity"}, {"measurement": "antibacterial activity", "setting": "[3]; FIG. 4, synthetic closthioamide, methicillin-resistant Staphylococcus aureus", "result": "highly active"}, {"measurement": "antimicrobial activity", "setting": "[3]; Staphylococcus aureus MRSA", "result": "showed activity"}, {"measurement": "antibacterial activity", "setting": "[3]; preliminary bioactivity profiling, isolated metabolite, methicillin-resistant Staphylococcus aureus (MRSA)", "result": "antibacterial activity"}, {"measurement": "cytotoxicity", "setting": "[4]", "result": "only moderate cytotoxicity"}, {"measurement": "activity of synthetic compound compared with the bacterial metabolite", "setting": "[5]", "result": "equivalent to the activity of the bacterial metabolite"}]}
